Experiments:
[1] = test system: ADP-induced platelet aggregation; test: Platelet aggregation-inhibiting activity (ADP-induced, diluted platelet-rich plasma); type: cell-based, dog (male beagle); settings: Canis lupus familiaris, test compound solution 100 μg/ml, added 2 minutes before ADP, beagle PRP, read-out: Platelet aggregation inhibiting activity (percentage inhibition of the second wave of ADP-induced platelet aggregation)
Procedure: The bottom layer was further centrifuged at 1000×g for 15 minutes to give platelet-poor plasma (PPP) as the supernatant solution.

[2] = test system: ACE; test: ACE-inhibitory activity in vivo (pressor response to angiotensin I); parameters: species or system rat (normotensive); settings: 0.1 mg/kg intravenously; angiotensin I 300 ng/kg i.v.; anesthetized normotensive rats
Procedure: Normotensive rats weighing 300-400 g were anesthetized with urethane(1.5 g/kg, s.c.), and angiotensin I (300 ng/kg) was injected into the femoral vein of the rats. The pressor response to angiotensin I was measured with a pressure transducer connected to the carotid artery. Then, a test compound was injected intravenously thereto at a dose of 0.1 mg/kg, and angiotensin I (300 ng/kg) was further injected intravenously at intervals. The ACE-inhibitory activity of the test compound was estimated from the pressor responses to angiotensin I which were obtained before and after intraveous injection of the test compound.

[3] = test system: spontaneously hypertensive rats (SHR); test: Hypotensive activity in SHR; type: in vivo, rat (SHR); settings: 50 mg/kg orally
Procedure: A test compound (dose: 50 mg/kg) suspended in an aqueous carboxymethylcellulose solution was administered orally to spotaneously hypertensive rats (SHR) fasted for a day. The systolic blood pressure of the rats was measured by the tail plethysmographic technique (The Journal of Laboratory and Clinic Medicine 78(1971), page 957). The hypotensive activity of the test compound was estimated from the decreased level of blood pressure.

[4] = test system: mice; test: Oral toxicity in mice; type: in vivo; settings: 3 g/kg
Description: . Moreover, the compound (I) of the present invention decreases aggregation of blood platelets and can be used to improve blood flow disturbances or other vascular diseases due to the formation of platelet aggregates (i.e., thrombus). Since the hypertensive disease is largely found in the aged subjects who show an increased tendency to capillary fragility or thrombosis, therefore, the compound (I) of the invention is useful to prevent, in addition to the treatment of hypertension, the genesis of thrombosis and other occlusive vascular diseases of such subjects. Further, the toxicity of the compound (I) is considerably low. […]

C[C@H](CS)C(=O)N1Cc2ccccc2C[C@H]1C(=O)O [(3S)-2-[(2S)-3-mercapto-2-methyl-propionyl]-1,2,3,4-tetrahydroisoquinoline-3-carboxylic acid]
inhibition at 100 µg/mL [1]: 86%
ACE-inhibitory activity in vivo (percentage inhibition of ACE activity in vivo) [2]: 90%
Hypotensive activity in SHR: Duration of action [3]: > 6 h
Hypotensive activity in SHR: Decrease in blood pressure ([3]; systolic, tail plethysmographic): ca. 20%
mortality five days after oral administration [4]: no mouse died

— US4256751A, “Tetrahydroisoquinoline derivatives” (Tanabe Seiyaku Co., Ltd., priority 1978, dated 1981)
